The values that follow come from US5032597A, “Method of using phenylquinolinecarboxylic acids and derivatives for lymthoid leukemia treatment in a mammal” (priority 1987, dated 1991).

The structures appear in SMILES notation. Where two headings read alike, the source gives them in different places.

The experiment relates to L1210 leukemia. The experiment can be described thus: Lymphoid Leukemia L1210, survival of tumored mice. In kind it is in vivo, CD2F1 mice. Conditions: for response vs control in vivo at 37.5 mg/kg: 37.5 mg/kg i.p.; for response vs control in vivo at 12.5 mg/kg: 12.5 mg/kg i.p. As to the method: The efficacy of the compounds of this invention against the transplanted mouse tumors was evaluated in test systems currently in use at the National Cancer Institute for the detection and assessment of anticancer activity. […] J. Cancer, 17, 129-142, (1981); Venditti, J. M., Seminars in Oncology, 8 (4) (1981); Goldin, A. and J. M. Venditti, in Recent Results in Cancer Research, 70, S. K. Carter and Y. Sakurai, Eds., Springer-Verlag, Berlin/Heidelberg, 1980].
The animals used in this test were CD2 F1 mice, all males weighing a minimum of 18 g and all within a 4 g weight range at the start of the test. The test group consisted of six mice. The tumor was implanted in each of the test mice by the intraperitoneal injection of 0.1 ml of diluted ascitic fluid containing 10^5 cells drawn from a mouse with L1210 leukemia. The test compounds were suspended in hydroxypropylcellulose or saline with Tween® 80 surfactant or dissolved in saline and injected intraperitoneally, at various doses, once daily for nine consecutive days starting on day one relative to the day of tumor inoculation (day 0). The control mice received injections of saline or hydroxypropylcellulose vehicle only. The mice were weighed and survivors were recorded on a regular basis for 30 days. The median survival time and the ratio of the median survival time for the treated (T) and control (C) mice was calculated. […] Drug effectiveness was assessed on the basis of the survival time. Results were expressed as a percentage of the control survival time (Median Survival Time: T/C ×100%). The criterion for effectiveness was determined by: T/C×100≥125 percent.

Where [1] appears, read: Mus musculus, L1210, ip, 720 h, read-out: L1210 Leukemia % T/C (median survival time).
Setting [2] is: Mus musculus, L1210, ip, 720 h, 100 mg/kg i.p., read-out: L1210 Leukemia % T/C (median survival time).
The mark [3] stands for this setting: Mus musculus, L1210, ip, 720 h, 75 mg/kg i.p., nonoptimal Q1DX9 instead of Q3DX9, read-out: L1210 Leukemia % T/C (median survival time).
Setting [4] is: Mus musculus, L1210, ip, 720 h, 25 mg/kg i.p., read-out: L1210 Leukemia % T/C (median survival time).
The mark [5] stands for this setting: Mus musculus, L1210, ip, 720 h, 50 mg/kg i.p., read-out: L1210 Leukemia % T/C (median survival time).
The mark [6] stands for this setting: Mus musculus, L1210, ip, 720 h, 150 mg/kg i.p., read-out: L1210 Leukemia % T/C (median survival time).
The mark [7] stands for this setting: Mus musculus, L1210, ip, 720 h, nonoptimal Q1DX9 instead of Q3DX9, read-out: L1210 Leukemia % T/C (median survival time).

With `O=C(O)c1cc(-c2ccc(-c3ccccc3)cc2)nc2ccc(F)cc12` [Example 123], where the note is “Mus musculus, L1210, ip, 720 h, 21.9 mg/kg i.p., read-out: L1210 Leukemia % T/C (median survival time)”, the response vs control in vivo at 21.9 mg/kg was 145%.

Take `Cc1c(-c2ccc(Oc3ccccc3)cc2)nc2ccc(Br)cc2c1C(=O)O` [Example 143]: under setting [1], the response vs control in vivo at 37.5 mg/kg was determined as 132%.

For `Cc1c(-c2ccc(Oc3ccc([N+](=O)[O-])cc3)cc2)nc2ccc(F)cc2c1C(=O)O` [Example 86, 6-Fluoro-3-methyl-2-(4-nitrophenoxyphenyl)-4-quinolinecarboxylic acid], the response vs control in vivo at 175 mg/kg (Mus musculus, L1210, ip, 720 h, 175 mg/kg i.p., read-out: L1210 Leukemia % T/C (median survival time)) was 153%.

`Cc1cc(-c2ccccc2)ccc1-c1nc2ccc(F)cc2c(C(=O)O)c1C` [Example 68]: the response vs control in vivo at 100 mg/kg under setting [2] was determined as 162%.

With `Cc1c(-c2ccc(-c3ccccc3)cc2)nc2ccc(Br)cc2c1C(=O)O` [Example 142], under setting [1], the response vs control in vivo at 37.5 mg/kg was found to be 169%.

Regarding `Cc1c(-c2ccc(SCc3ccccc3)cc2)nc2ccc(F)cc2c1C(=O)O` [Example 116], under setting [3], the response vs control in vivo at 75 mg/kg was 102%.

In the case of `Cc1c(-c2ccc([S+]([O-])c3ccccc3)cc2)nc2ccc(F)cc2c1C(=O)O` (stereo not shown) [Example 34], the response vs control in vivo at 400 mg/kg (Mus musculus, L1210, ip, 720 h, 400 mg/kg i.p., read-out: L1210 Leukemia % T/C (median survival time)) stood at 170%.

As to `Cc1c(-c2ccc(-c3ccccc3F)cc2)nc2ccc(Cl)cc2c1C(=O)O` [Example 160], the response vs control in vivo at 25 mg/kg under setting [4] is 174%.

In the case of `O=C(O)c1cc(-c2ccc(-c3ccccc3)cc2)nc2ccc(F)cc12` [Example 182], under “Mus musculus, L1210, ip, 720 h, 46 mg/kg i.p., read-out: L1210 Leukemia % T/C (median survival time)”, the response vs control in vivo at 46 mg/kg was 168%.

As for `Cc1c(-c2ccc(Sc3ccccc3)cc2)nc2ccc(Cl)cc2c1C(=O)O` [Example 21], the response vs control in vivo at 200 mg/kg (Mus musculus, L1210, ip, 720 h, 200 mg/kg i.p., read-out: L1210 Leukemia % T/C (median survival time)) came out at 160%.

With `CCc1c(-c2ccc(C3CCCCC3)cc2)nc2ccc(F)cc2c1C(=O)O` [Example 100], the response vs control in vivo at 50 mg/kg (Mus musculus, L1210, ip, 720 h, 50 mg/kg i.p., nonoptimal Q1DX9 instead of Q3DX9, read-out: L1210 Leukemia % T/C (median survival time)) was 103%.

`Cc1c(-c2ccc(-c3ccc(Br)cc3)cc2)nc2ccc(F)cc2c1C(=O)O` [Example 183]: for the setting “Mus musculus, L1210, ip, 720 h, 22.5 mg/kg i.p., read-out: L1210 Leukemia % T/C (median survival time)”, the response vs control in vivo at 22.5 mg/kg amounted to 208%.

For `Cc1c(-c2ccc([S+]([O-])c3ccccc3)cc2)nc2ccc(F)cc2c1C(=O)O` (stereo not shown) [Example 124], the response vs control in vivo at 360 mg/kg (Mus musculus, L1210, ip, 720 h, 360 mg/kg i.p., read-out: L1210 Leukemia % T/C (median survival time)) is 184%.

For the molecule `Cc1c(-c2ccc(-c3ccc(F)cc3F)cc2)nc2ccc(F)cc2c1C(=O)O` [Example 74], the response vs control in vivo at 50 mg/kg under setting [5] was 104%.

As to `CCN(CC)CCOC(=O)c1c(C)c(-c2ccc(-c3ccccc3F)cc2)nc2ccc(F)cc12` [Example 202], under “Mus musculus, L1210, ip, 720 h, 59 mg/kg i.p., read-out: L1210 Leukemia % T/C (median survival time)”, the response vs control in vivo at 59 mg/kg stood at 164%.

As to `Cc1c(-c2ccc(-c3ccccc3)cc2)nc2ccc(I)cc2c1C(=O)O` [Example 185], under setting [5], the response vs control in vivo at 50 mg/kg was determined as 175%.

Take `Cc1ccc2c(C(=O)O)c(C)c(-c3ccc(-c4ccccc4)cc3)nc2c1` [Example 55]: the response vs control in vivo at 150 mg/kg under setting [6] worked out at 156%.

As to `Cc1c(-c2ccc(-c3cccc(F)c3)cc2)nc2ccccc2c1C(=O)O` [Example 190], the response vs control in vivo at 50 mg/kg under setting [5] came to 195%.

In the case of `COc1c(-c2ccc(-c3ccccc3)cc2)nc2ccc(F)cc2c1C(=O)O` [Example 37], for the setting “50 mg/kg i.p.”, the “L1210 Leukemia % T/C (median survival time)” value (from here on “L1210 Leukemia % T/C”) is given as 155%.

On to `Cc1c(-c2ccc(-c3ccc(Br)cc3)cc2)nc2ccc(Cl)cc2c1C(=O)O` [Example 175], for which the response vs control in vivo at 12.5 mg/kg under setting [1] was determined as 156%.

As for `Cc1c(-c2ccc(-c3ccccc3)cc2)nc2cc(Cl)cc(Cl)c2c1C(=O)O` [Example 165], under setting [5], the response vs control in vivo at 50 mg/kg was found to be 128%.

Turning to `Cc1c(-c2ccc(Oc3ccccc3)cc2)nc2ccc(Cl)cc2c1C(=O)O` [Example 172], the response vs control in vivo at 100 mg/kg under setting [2] was determined as 151%.

Take `Cc1c(-c2ccc(-c3ccc(Br)cc3)cc2)nc2ccc(Cl)cc2c1C(=O)O` [Example 27]: the response vs control in vivo at 50 mg/kg under setting [5] amounted to 155%.

Consider `O=C(O)c1cc(-c2ccc(Oc3ccc(F)cc3)cc2)nc2ccc(F)cc12` [Example 75], for which, under setting [6], the response vs control in vivo at 150 mg/kg is 145%.

For the molecule `Cc1ccc2nc(-c3ccc(-c4ccccc4)cc3)c(C)c(C(=O)O)c2c1Cl` [Example 166], under setting [5], the response vs control in vivo at 50 mg/kg amounted to 156%.

`Cc1c(-c2ccc(-c3ccccc3)cc2)nc2ccc(F)c(Cl)c2c1C(=O)O` [Example 164, Sodium 2-(4-Biphenylyl)-5-chloro-6-fluoro-3-methylquinoline-4-carboxylate]: the response vs control in vivo at 22.5 mg/kg (Mus musculus, L1210, ip, 720 h, read-out: L1210 Leukemia % T/C (median survival time), 22.5 mg/kg i.p.) amounted to 234%.

As to `Cc1ccc(-c2ccc(-c3nc4ccc(F)c(Cl)c4c(C(=O)O)c3C)cc2)cc1` [Example 85], the “L1210 Leukemia % T/C” value (100 mg/kg i.p.) is reported as 184%.

In the case of `Cc1c(-c2ccc(Oc3ccc(F)cc3)cc2)nc2ccc(F)cc2c1C(=O)O` [Example 35], under “150 mg/kg i.p.”, the “L1210 Leukemia % T/C” value is 204%.

On to `Cc1ccc(-c2ccc(-c3nc4ccc(F)cc4c(C(=O)O)c3C)cc2)cc1Cl` [Example 128], for which, under setting [4], the response vs control in vivo at 25 mg/kg is 135%.

Turning to `Cc1c(-c2ccc(-c3ccc(F)cc3)cc2)nc2ccc(Cl)cc2c1C(=O)O` [Example 113], the “L1210 Leukemia % T/C” value (25 mg/kg i.p.) was found to be 166%.

On to `Cc1c(-c2ccc(-c3ccc(F)cc3)cc2)nc2cc(Cl)c(F)cc2c1C(=O)O` [Example 144], for which the response vs control in vivo at 37.5 mg/kg under setting [7] turned out to be 123%.

As for `Cc1c(-c2ccc(-c3ccccc3)cc2)nc2c(Br)cc(Br)cc2c1C(=O)O` [Example 150], the response vs control in vivo at 37.5 mg/kg under setting [7] amounted to 105%.

Regarding `Cc1c(-c2ccc(Cc3ccccc3)cc2)nc2ccc(Cl)cc2c1C(=O)O` [Example 22], under setting [2], the response vs control in vivo at 100 mg/kg was 135%.

Regarding `Cc1c(-c2ccc(-c3ccc(Cl)c(Cl)c3)cc2)nc2ccc(F)cc2c1C(=O)O` [Example 126], the response vs control in vivo at 37.5 mg/kg under setting [1] was 150%.

Take `Cc1c(-c2ccc(-c3ccccc3)cc2)nc2ccc(I)cc2c1C(=O)O` [Example 71]: the response vs control in vivo at 25 mg/kg under setting [4] is 163%.

Regarding `Cc1c(-c2ccc(-c3ccccc3F)cc2)nc2ccc(F)c(Cl)c2c1C(=O)O` [Example 167], the response vs control in vivo at 12.5 mg/kg under setting [1] was 197%.

As to `Cc1c(-c2ccc(Oc3ccc([N+](=O)[O-])cc3)cc2)nc2ccc(F)cc2c1C(=O)O` [Example 184], the “L1210 Leukemia % T/C” value (175 mg/kg i.p.) is reported as 153%.

As to `Cc1c(-c2ccc(-c3ccccc3)cc2)nc2cc(Cl)c(F)cc2c1C(=O)O` [Example 151], for the setting “75 mg/kg i.p.”, the “L1210 Leukemia % T/C” value came out at 144%.

In the case of `COc1c(-c2ccc(-c3ccccc3)cc2)nc2ccc(F)cc2c1C(=O)O` [Example 127], the “L1210 Leukemia % T/C” value (50 mg/kg i.p.) stood at 193%.

Consider `Cc1c(-c2ccc(Oc3ccc(F)cc3)cc2)nc2ccc(F)cc2c1C(=O)O` [Example 125], for which the “L1210 Leukemia % T/C” value (150 mg/kg i.p.) was found to be 150%.

In the case of `Cc1c(-c2ccc(-c3ccccc3F)cc2)nc2ccc(F)cc2c1C(=O)OCCCN(C)C` [Example 199], under setting [4], the response vs control in vivo at 25 mg/kg was 153%.

`Cc1cc2c(C(=O)O)c(C)c(-c3ccc(Oc4ccccc4)cc3)nc2cc1Cl` [Example 149]: under setting [3], the response vs control in vivo at 75 mg/kg worked out at 107%.

With `Cc1cc(-c2ccccc2)ccc1-c1nc2ccc(F)cc2c(C(=O)O)c1C` [Example 158], the “L1210 Leukemia % T/C” value (100 mg/kg i.p.) is 148%.

As for `Cc1c(-c2ccc(-c3ccccc3)cc2)nc2ccc(C(F)(F)F)cc2c1C(=O)O` [Example 146], under setting [1], the response vs control in vivo at 37.5 mg/kg was determined as 164%.

Turning to `Cc1ccc(-c2ccc(-c3nc4ccc(F)cc4c(C(=O)O)c3C)cc2)cc1` [Example 120], under setting [2], the response vs control in vivo at 100 mg/kg turned out to be 132%.

As to `Cc1c(-c2ccc(-c3ccccc3F)cc2)nc2ccc(F)cc2c1C(=O)OCCCN(C)C` [Example 200], the “L1210 Leukemia % T/C” value (25 mg/kg i.p.) is recorded as 140%.
